Reference: the NIST ThermoML archive (doi:10.1016/j.fluid.2007.01.042)
Numbers after ± are expanded uncertainties.

Conditions: Liquid, Ebulliometric method (Recirculating still)

Question: For `Cc1cccc(C)c1` [1,3-dimethylbenzene], which “vapor or sublimation pressure” value (380.51 K) is on record?
Answer: Its value is 40 ± 0.09 kPa.

Question: And the “vapor or sublimation pressure” value (389.66 K)?
Answer: Its value is 53.33 ± 0.11 kPa.

Question: And the “vapor or sublimation pressure” value (397.13 K)?
Answer: Its value is 66.66 ± 0.14 kPa.

Question: And the “vapor or sublimation pressure” value (403.51 K)?
Answer: Its value is 79.99 ± 0.17 kPa.

Question: What about the “vapor or sublimation pressure” value (409.09 K) of the same compound?
Answer: The value was 93.32 ± 0.19 kPa.

Question: Which results are given for `Cc1ccccc1Cl` [2-chlorotoluene]?
Answer: vapor or sublimation pressure (398.81 K): 40 ± 0.05 kPa; vapor or sublimation pressure (408.41 K): 53.33 ± 0.06 kPa; vapor or sublimation pressure (416.25 K): 66.66 ± 0.08 kPa; vapor or sublimation pressure (422.91 K): 79.99 ± 0.09 kPa; vapor or sublimation pressure (428.76 K): 93.32 ± 0.11 kPa

Question: Which “vapor or sublimation pressure” value (401.71 K) does the source give for `Cc1ccc(Cl)cc1` [4-chlorotoluene] here?
Answer: The value was 40 ± 0.09 kPa.

Question: And the “vapor or sublimation pressure” value (411.34 K)?
Answer: The value was 53.33 ± 0.11 kPa.

Question: What about the “vapor or sublimation pressure” value (419.2 K) of the same compound?
Answer: The value was 66.66 ± 0.14 kPa.

Question: And the “vapor or sublimation pressure” value (425.9 K)?
Answer: Its value is 79.99 ± 0.17 kPa.

Question: And the “vapor or sublimation pressure” value (431.77 K)?
Answer: Its value is 93.32 ± 0.19 kPa.

Question: Which “vapor or sublimation pressure” value (325.6 K) does the source give for `c1ccccc1` [benzene] here?
Answer: The value was 40 ± 0.04 kPa.

Question: And the “vapor or sublimation pressure” value (333.56 K)?
Answer: The value was 53.33 ± 0.04 kPa.

Question: And the “vapor or sublimation pressure” value (340.06 K)?
Answer: The value was 66.66 ± 0.05 kPa.

Question: What about the “vapor or sublimation pressure” value (345.61 K) of the same compound?
Answer: Its value is 79.99 ± 0.06 kPa.

Question: What about the “vapor or sublimation pressure” value (350.5 K) of the same compound?
Answer: Its value is 93.32 ± 0.06 kPa.

Question: Which results are given for `C1CCCCC1` [cyclohexane]?
Answer: vapor or sublimation pressure (325.65 K): 40 ± 0.04 kPa; vapor or sublimation pressure (333.77 K): 53.33 ± 0.04 kPa; vapor or sublimation pressure (340.43 K): 66.66 ± 0.05 kPa; vapor or sublimation pressure (346.11 K): 79.99 ± 0.06 kPa; vapor or sublimation pressure (351.12 K): 93.32 ± 0.06 kPa

Question: Which “vapor or sublimation pressure” value (324.44 K) does the source give for `CCOC(C)=O` [ethyl acetate] here?
Answer: The value was 40 ± 0.04 kPa.

Question: What about the “vapor or sublimation pressure” value (331.9 K) of the same compound?
Answer: Its value is 53.33 ± 0.05 kPa.

Question: What about the “vapor or sublimation pressure” value (337.99 K) of the same compound?
Answer: The value was 66.66 ± 0.06 kPa.

Question: And the “vapor or sublimation pressure” value (343.18 K)?
Answer: The value was 79.99 ± 0.07 kPa.

Question: What about the “vapor or sublimation pressure” value (347.7 K) of the same compound?
Answer: Its value is 93.32 ± 0.08 kPa.

Question: For `CCc1ccccc1` [ethylbenzene], which “vapor or sublimation pressure” value (377.54 K) is on record?
Answer: The value was 40 ± 0.09 kPa.

Question: And the “vapor or sublimation pressure” value (386.69 K)?
Answer: Its value is 53.33 ± 0.11 kPa.

Question: And the “vapor or sublimation pressure” value (394.14 K)?
Answer: The value was 66.66 ± 0.14 kPa.

Question: What about the “vapor or sublimation pressure” value (400.51 K) of the same compound?
Answer: Its value is 79.99 ± 0.17 kPa.

Question: And the “vapor or sublimation pressure” value (406.12 K)?
Answer: The value was 93.32 ± 0.19 kPa.

Question: For `CCCCCCC` [heptane], which “vapor or sublimation pressure” value (342.77 K) is on record?
Answer: The value was 40 ± 0.05 kPa.

Question: And the “vapor or sublimation pressure” value (351.08 K)?
Answer: Its value is 53.33 ± 0.07 kPa.

Question: And the “vapor or sublimation pressure” value (357.85 K)?
Answer: Its value is 66.66 ± 0.08 kPa.

Question: And the “vapor or sublimation pressure” value (363.64 K)?
Answer: The value was 79.99 ± 0.1 kPa.

Question: What about the “vapor or sublimation pressure” value (368.7 K) of the same compound?
Answer: The value was 93.32 ± 0.11 kPa.

Question: Which results are given for `CC1CCCCC1` [methylcyclohexane]?
Answer: vapor or sublimation pressure (344.18 K): 40 ± 0.09 kPa; vapor or sublimation pressure (352.8 K): 53.33 ± 0.11 kPa; vapor or sublimation pressure (359.85 K): 66.66 ± 0.14 kPa; vapor or sublimation pressure (365.87 K): 79.99 ± 0.17 kPa; vapor or sublimation pressure (371.15 K): 93.32 ± 0.19 kPa

Question: With `ClC(Cl)(Cl)Cl` [tetrachloromethane] as the compound, how does the “vapor or sublimation pressure” value (322.04 K) read?
Answer: Its value is 40 ± 0.04 kPa.

Question: And the “vapor or sublimation pressure” value (330.08 K)?
Answer: The value was 53.33 ± 0.04 kPa.

Question: And the “vapor or sublimation pressure” value (336.65 K)?
Answer: The value was 66.66 ± 0.05 kPa.

Question: And the “vapor or sublimation pressure” value (342.21 K)?
Answer: The value was 79.99 ± 0.06 kPa.

Question: What about the “vapor or sublimation pressure” value (347.09 K) of the same compound?
Answer: Its value is 93.32 ± 0.06 kPa.
